Test results: patent publication US7067257B2, “Thyrotropin-releasing hormone analogues and their therapeutic applications” (University of Florida, priority 2002, dated 2006)
Square brackets hold non-standard residues; d marks the D form. Peptide text beside a SMILES is read from it. pGlu = O=C1CC[C@@H](C(=O)O)N1

Legend:
Swiss Webster mice [1] = assay: duration of analeptic action, antagonism of barbituate-induced anesthesia (Example 6); format: in vivo; details: 15 μmol/kg i.v.; pentobarbital injection at 60 minutes compared to after 10 minutes
Protocol: A pharmacological paradigm was used to assess the potency of the subject TRH analogues as central nervous system agents administered to animals in their prodrug forms in vivo. The antagonism on the barbituate-induced anesthesia was explored to survey the extent of activation of cholinergic neurons by the test compounds. Ten to sixteen Swiss Webster mice (30±2 g) were used in each group. Test compounds were dissolved in degassed DMSO. The vehicle alone (1.5 ml/kg body weight) or equimolar doses of TRH as control and prodrugs according to the present invention (15 μmol/kg body weight) were injected through the tail vein. After 10 minutes, each animal received an intraperitoneal (i.p.) injection of sodium pentobarbital at dose 60 mg/kg bodyweight. An increase in the time after which the animals were injected with TRH and a TRH analogue according to the present invention and after the cholinergic challenge was made was increased. The sleeping time was recorded as the time elapsed from the onset of the loss of righting reflex until the reflex was regained.

[2] = rat, human, in vivo; cited from earlier work
[3] = in vitro stability in mouse brain homogenate; format: in vitro ADME; details: mouse brain homogenate (20% w/v)
Protocol: In vitro stability studies in mouse brain homogenate (20% w/v) were conducted at 100 μM concentration of TRH analogues of Formula I wherein R^3 is an ester moiety. Analytical reversed-phase gradient HPLC with UV detection (λ=214 nm) was used to monitor the decline in the concentration in the compound added. The half-lives (t1/2) were 20 and 22 minutes for the TRH analogues derived from primary alcohols and 25 minutes and 70 minute for TRH analogues derived from […]. TRH analogues of the subject invention in which R^3 is benzyl ester was discovered to be relatively stable in the tissue (t1/2>2 hours).

Swiss Webster mice [4] = assay: antagonism of barbiturate-induced anesthesia in mice (Example 9); format: in vivo; details: 10 μmole/kg i.v.; sodium pentobarbital 60 mg/kg i.p. after 10 minutes
Protocol: The antagonism of the barbiturate-induced anesthesia in mice was used to assess the increase in the access of the TRH analogues of the present invention to the central nervous system compared to the parent TRH-like tripeptide (pGlu-Glu-Pro-NH2). In this assay related to the analeptic activity of the TRH-like tripeptide, 10 to 18 Swiss Webster mice (30±2 g body weight) were used in each group. The vehicle alone (1.5 ml/kg body weight) or equimolar doses of TRH-like tripeptide as control and the TRH analogues of Formula I (10 μmole/kg body weight) were injected through the tail vein (i.v.). In another group of animals, the TRH-like tripeptide was administered at 10-times higher dose (100 μmol/kg) for comparison. After 10 minutes, each animal received an intraperitoneal (i.p.) injection of sodium pentobarbital at a dose of 60 mg/kg body weight. The sleeping time was recorded from the onset of the loss of righting reflex until the reflex was regained.
Based on measuring analeptic activity in the animal model selected.

## NC(=O)[C@@H]1CCCN1C(=O)[C@H](Cc1cnc[nH]1)NC(=O)[C@@H]1CCC(=O)N1 [TRH, L-pyroglutamyl-L-histidyl-L-prolinamide]
Swiss Webster mice [1]
  loss of central nervous system (analeptic) activity: over 50%
[2]
  biological half-life: 4–6 minutes

## NC(=O)[C@@H]1CCCN1C(=O)[C@H](CCC(=O)OCc1ccccc1)NC(=O)[C@@H]1CCC(=O)N1 [benzyl ester] (HELM PEPTIDE1{[Glp].E.P.[am]}|CHEM1{[c1ccc(CO[*:1])cc1]}$PEPTIDE1,CHEM1,2:R3-1:R1$$$V2.0)
[3]
  half-life at 100 μM: > 2 h

## [pGlu]-Glu-Pro-NH2 [TRH-like tripeptide]
Swiss Webster mice [4]
  sleeping time: 65±3 minutes SEM
